Structures can show the parent of a compound that is named as a salt. Where two headings read alike, the source gives them in different places.
Tests used:
[1] = molecular target: T1, HCN2 (Homo sapiens (Human), UniProt Q9UL51); assay: HCN2 current assay using the Sophion Qube; type: cell-based; settings: Sophion Qube protocol; read-out: SQ HCN2 IC50
Experimental: (§1) Example 126B, Using the Sophion Qube
(§2) Solutions for recording HCN currents were:
(§3) This voltage protocol was applied every 20 seconds for the duration of the experiment. Both the vehicle (0.3% DMSO) and full block (3 mM CsCl) addition periods were applied for 10 experimental sweeps each.
(§4) The current amplitudes were measured by subtracting metric A from metric B (see FIG. 2) with inhibition calculated by normalising to the vehicle addition (0.3% DMSO) and full inhibition by 3 mM CsCl in the same well.
(§5) In total, compound was applied to the well for 600 seconds.

[2] = molecular target: T2, HCN4 (Homo sapiens (Human), UniProt Q9Y3Q4); assay: HCN4 current assay using the Sophion Qube; type: cell-based; settings: Sophion Qube protocol; read-out: SQ HCN4 IC50
T2 sequence (Q9Y3Q4 whole entry, species assumed): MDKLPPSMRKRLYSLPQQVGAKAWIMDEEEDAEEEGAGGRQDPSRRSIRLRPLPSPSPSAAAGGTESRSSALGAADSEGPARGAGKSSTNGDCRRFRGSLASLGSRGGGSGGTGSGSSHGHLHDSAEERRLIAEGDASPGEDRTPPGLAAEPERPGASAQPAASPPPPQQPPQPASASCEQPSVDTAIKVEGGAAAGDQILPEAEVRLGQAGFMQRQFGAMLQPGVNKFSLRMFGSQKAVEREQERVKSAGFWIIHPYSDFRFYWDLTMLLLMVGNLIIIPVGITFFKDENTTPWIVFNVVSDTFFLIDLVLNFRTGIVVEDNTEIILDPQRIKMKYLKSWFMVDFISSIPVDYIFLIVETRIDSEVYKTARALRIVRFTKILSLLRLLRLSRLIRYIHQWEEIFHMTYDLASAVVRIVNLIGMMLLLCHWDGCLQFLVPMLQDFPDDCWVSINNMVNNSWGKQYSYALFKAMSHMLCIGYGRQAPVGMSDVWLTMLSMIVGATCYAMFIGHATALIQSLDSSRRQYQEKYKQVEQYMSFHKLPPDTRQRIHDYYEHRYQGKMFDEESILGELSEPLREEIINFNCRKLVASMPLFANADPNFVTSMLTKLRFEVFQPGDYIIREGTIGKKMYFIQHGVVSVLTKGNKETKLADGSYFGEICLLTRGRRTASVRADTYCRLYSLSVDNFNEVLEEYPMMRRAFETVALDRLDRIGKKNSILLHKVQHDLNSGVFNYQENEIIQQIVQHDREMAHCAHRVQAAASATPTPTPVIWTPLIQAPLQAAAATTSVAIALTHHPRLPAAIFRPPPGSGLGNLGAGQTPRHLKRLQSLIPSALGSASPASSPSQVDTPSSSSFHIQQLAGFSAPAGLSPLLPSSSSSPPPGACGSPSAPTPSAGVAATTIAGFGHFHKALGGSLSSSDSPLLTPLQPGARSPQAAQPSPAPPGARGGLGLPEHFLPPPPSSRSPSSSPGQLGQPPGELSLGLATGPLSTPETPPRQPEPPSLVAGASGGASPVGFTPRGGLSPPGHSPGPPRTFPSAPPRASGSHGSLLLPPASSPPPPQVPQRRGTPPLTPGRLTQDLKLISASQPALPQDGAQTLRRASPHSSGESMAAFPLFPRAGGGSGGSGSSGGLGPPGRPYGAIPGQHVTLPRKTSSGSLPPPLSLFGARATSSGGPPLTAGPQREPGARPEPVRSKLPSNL
Experimental: as §1, §2, §3, §4, §5

[3] = molecular target: T3, HCN1 (Homo sapiens (Human), UniProt O60741); assay: HCN1 current assay using the Sophion Qube; type: cell-based; settings: Sophion Qube protocol; read-out: SQ HCN1 IC50
T3 sequence (O60741 whole entry, species assumed): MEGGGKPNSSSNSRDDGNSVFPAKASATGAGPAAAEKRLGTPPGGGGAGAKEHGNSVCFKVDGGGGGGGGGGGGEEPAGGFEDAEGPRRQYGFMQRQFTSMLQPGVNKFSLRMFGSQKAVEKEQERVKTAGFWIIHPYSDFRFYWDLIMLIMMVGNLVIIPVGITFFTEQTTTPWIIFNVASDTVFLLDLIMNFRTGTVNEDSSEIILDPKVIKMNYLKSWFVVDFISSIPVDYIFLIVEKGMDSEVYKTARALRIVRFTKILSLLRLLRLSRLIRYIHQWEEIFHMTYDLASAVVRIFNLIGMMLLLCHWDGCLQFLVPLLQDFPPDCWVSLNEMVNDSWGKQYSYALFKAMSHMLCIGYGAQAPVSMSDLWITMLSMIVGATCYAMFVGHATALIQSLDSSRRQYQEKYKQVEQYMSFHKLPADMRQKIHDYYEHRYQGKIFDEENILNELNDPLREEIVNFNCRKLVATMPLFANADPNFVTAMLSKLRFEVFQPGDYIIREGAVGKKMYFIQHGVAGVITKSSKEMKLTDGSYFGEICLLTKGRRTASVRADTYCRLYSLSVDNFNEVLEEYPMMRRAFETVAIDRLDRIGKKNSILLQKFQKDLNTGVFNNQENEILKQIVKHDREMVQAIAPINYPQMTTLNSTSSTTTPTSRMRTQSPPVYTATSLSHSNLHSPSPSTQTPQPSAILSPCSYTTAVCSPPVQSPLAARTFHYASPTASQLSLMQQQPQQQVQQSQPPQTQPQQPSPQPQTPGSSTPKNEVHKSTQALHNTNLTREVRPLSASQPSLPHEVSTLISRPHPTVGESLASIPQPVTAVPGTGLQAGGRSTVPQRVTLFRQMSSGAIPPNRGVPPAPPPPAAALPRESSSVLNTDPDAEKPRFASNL
Experimental: as §1, §2, §3, §4, §5

[4] = molecular target: T4, hERG channel (Homo sapiens (Human), UniProt Q12809); assay: hERG assay using Sophion Qube; type: cell-based; settings: Sophion Qube protocol; read-out: SQ hERG IC50
T4 sequence (Q12809 whole entry): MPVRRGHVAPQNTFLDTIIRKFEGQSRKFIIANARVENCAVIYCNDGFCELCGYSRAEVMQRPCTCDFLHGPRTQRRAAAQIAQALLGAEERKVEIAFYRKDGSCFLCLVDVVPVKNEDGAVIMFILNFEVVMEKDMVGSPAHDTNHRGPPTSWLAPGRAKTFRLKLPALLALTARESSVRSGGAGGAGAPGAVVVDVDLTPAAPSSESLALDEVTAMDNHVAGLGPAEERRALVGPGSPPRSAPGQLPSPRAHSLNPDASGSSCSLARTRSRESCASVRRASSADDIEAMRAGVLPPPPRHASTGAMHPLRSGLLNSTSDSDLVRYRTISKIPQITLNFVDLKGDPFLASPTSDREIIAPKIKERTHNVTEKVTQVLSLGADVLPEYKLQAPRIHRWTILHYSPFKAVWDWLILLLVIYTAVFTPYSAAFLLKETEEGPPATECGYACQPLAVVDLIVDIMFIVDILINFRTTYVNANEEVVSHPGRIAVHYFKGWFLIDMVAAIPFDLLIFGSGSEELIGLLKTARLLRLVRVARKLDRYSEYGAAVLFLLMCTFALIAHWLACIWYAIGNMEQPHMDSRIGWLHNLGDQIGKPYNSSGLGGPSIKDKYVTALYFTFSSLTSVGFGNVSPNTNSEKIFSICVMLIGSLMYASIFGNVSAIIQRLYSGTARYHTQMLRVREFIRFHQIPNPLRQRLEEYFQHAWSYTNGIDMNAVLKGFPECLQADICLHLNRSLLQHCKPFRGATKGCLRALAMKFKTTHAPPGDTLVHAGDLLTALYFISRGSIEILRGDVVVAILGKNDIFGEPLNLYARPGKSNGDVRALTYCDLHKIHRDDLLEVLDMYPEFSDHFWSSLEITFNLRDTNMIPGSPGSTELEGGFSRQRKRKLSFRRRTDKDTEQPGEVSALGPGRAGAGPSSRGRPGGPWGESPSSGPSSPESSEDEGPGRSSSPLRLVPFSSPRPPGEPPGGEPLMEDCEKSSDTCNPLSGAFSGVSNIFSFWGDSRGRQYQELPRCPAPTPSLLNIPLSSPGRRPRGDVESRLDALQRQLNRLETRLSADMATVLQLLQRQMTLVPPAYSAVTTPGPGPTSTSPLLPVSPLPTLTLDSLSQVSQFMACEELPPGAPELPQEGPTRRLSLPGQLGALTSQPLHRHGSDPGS
Experimental: Example 127B, Using Sophion Qube
(§6) Solutions for recording hERG currents were:
This voltage protocol was applied every 15 seconds for the duration of the experiment. Both the vehicle and 1st compound addition periods were applied for 10 sweeps. The 2nd compound addition period was applied for 20 sweeps. The compound concentration was added to the test well twice to assure complete exchange of the external buffer with the test compound. In total, compound was applied to the well for 450 seconds.

[5] = molecular target: T5, hNav1.5 (Homo sapiens (Human), UniProt Q14524)
Experimental: The cells were held at −100 mV followed by a depolarising step to −10 mV for 100 milliseconds before stepping back to −100 mV, this represents 1 experimental sweep.
For tonic block (0.1 Hz), the peak currents evoked by the step to −10 mV were measured for the analysis of the percentage inhibition by test compounds. For use-dependent block (4 Hz), the peak current evoked at the 20th depolarising step to −10 mV was measured for the analysis of the percentage inhibition by test compounds. Peak currents were first normalised to the vehicle addition (0.3% DMSO) in the same well.

[6] = molecular target: MDR1 (P-glycoprotein) (Homo sapiens (Human), UniProt P08183); assay: in vitro; settings: dog, MDCK-MDR1, pH 7.4
Experimental: Test compounds were added (10 μM, 0.1% DMSO final, n=2) to donor compartments of the Transwell plate assembly in assay buffer (Hanks balanced salt solution supplemented with 25 mM HEPES, adjusted to pH 7.4) for both apical to basolateral (A>B) and basolateral to apical (B>A) measurements. A parallel series of incubations were performed in the presence of the transporter inhibitor elacridar (5 μM) which was added to both compartments in the transwell plate. Incubations were performed at 37° C., with samples removed from both donor and acceptor chambers at T=0 and 1 hour for recovery assessment and compound analysed by mass spectrometry (LC-MS/MS), including an analytical internal standard.
Apparent permeability (Papp) values were determined from the relationship:
Where V is the volume of each Transwell compartment (apical 125 μL, basolateral 600 μL), and concentrations are the relative MS responses for compound (normalized to internal standard) in the donor chamber before incubation and acceptor chamber at the end of the incubation.
Area=area of cells exposed for drug transfer (0.33 cm2).
Efflux ratios (Papp B>A/Papp A>B) were calculated for each compound from the mean Papp values in each direction. […] The efflux ratios were also calculated in the same way from the runs carried out in the presence of the inhibitor. The net flux is the ratio of the efflux in the absence of inhibitor to that in the presence of inhibitor.
Lucifer Yellow (LY) was added to the apical buffer in all wells to assess viability of the cell layer.
Compound recovery from the wells was determined from MS responses (normalized to internal standard) in donor and acceptor chambers at the end of incubation compared to response in the donor chamber pre-incubation.

[7] = molecular target: T1, HCN2; assay: HCN2 current assay using PatchXpress 7000A; type: cell-based; settings: PatchXpress protocol; read-out: PX HCN2 IC50
In short: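 Automated patch clamp (PatchXpress 7000A) at about 22° C. HCN current taken as leak-subtracted peak inward current at the end of a step to −110 mV, with a return to −30 mV for 8 seconds. Cumulative concentrations applied 7 minutes each; amplitude normalised to control.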

[8] = molecular target: T2, HCN4; assay: HCN4 current assay using PatchXpress 7000A; type: cell-based; settings: PatchXpress protocol; read-out: PX HCN4 IC50
In short: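 Peak inward current taken at end of a −130 mV pulse, leak-subtracted, and normalized to the control amplitude. Cumulative concentrations applied for 7 min each at room temperature (approximately 22° C.) on an automated patch-clamp platform.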

[9] = molecular target: T3, HCN1; assay: HCN1 current assay using PatchXpress 7000A; type: cell-based; settings: PatchXpress protocol; read-out: PX HCN1 IC50
Experimental: Example 126A, Using PatchXpress 7000A
as §2
The membrane voltage was then stepped back to −30 mV for a further 8 seconds.
The peak inward current measured at the end of the pulse to −110 mV (HCN1 and HCN2) or −130 mV (HCN4) was measured and any leak current subtracted to calculate the HCN current. The HCN current amplitude was measured after each control or compound addition and normalized to the control amplitude (Control A).
All experiments were performed at room temperature (approximately 22° C.).
Each test compound concentration was applied to the cell for seven (7) minutes, at which point the next cumulative concentration was applied.

[10] = molecular target: T4, hERG channel; assay: hERG assay using IonWorks Quattro; type: cell-based; settings: IonWorks protocol; read-out: IW hERG IC50
Experimental: Example 127A, Using IonWorks Quattro
as §6
This was followed by a […] step of is to −30 mV to evoke the hERG tail current. This sequence was repeated 5 times at a frequency of 0.25 Hz (see FIG. 3). Currents were measured from the tail step at the 5th pulse and referenced to the holding current. Compounds were then incubated for 6-7 minutes prior to a second measurement of the hERG signal using an identical pulse train.

[11] = molecular target: T5, hNav1.5; remark: listed apart in the source

T1 sequence (Q9UL51 whole entry): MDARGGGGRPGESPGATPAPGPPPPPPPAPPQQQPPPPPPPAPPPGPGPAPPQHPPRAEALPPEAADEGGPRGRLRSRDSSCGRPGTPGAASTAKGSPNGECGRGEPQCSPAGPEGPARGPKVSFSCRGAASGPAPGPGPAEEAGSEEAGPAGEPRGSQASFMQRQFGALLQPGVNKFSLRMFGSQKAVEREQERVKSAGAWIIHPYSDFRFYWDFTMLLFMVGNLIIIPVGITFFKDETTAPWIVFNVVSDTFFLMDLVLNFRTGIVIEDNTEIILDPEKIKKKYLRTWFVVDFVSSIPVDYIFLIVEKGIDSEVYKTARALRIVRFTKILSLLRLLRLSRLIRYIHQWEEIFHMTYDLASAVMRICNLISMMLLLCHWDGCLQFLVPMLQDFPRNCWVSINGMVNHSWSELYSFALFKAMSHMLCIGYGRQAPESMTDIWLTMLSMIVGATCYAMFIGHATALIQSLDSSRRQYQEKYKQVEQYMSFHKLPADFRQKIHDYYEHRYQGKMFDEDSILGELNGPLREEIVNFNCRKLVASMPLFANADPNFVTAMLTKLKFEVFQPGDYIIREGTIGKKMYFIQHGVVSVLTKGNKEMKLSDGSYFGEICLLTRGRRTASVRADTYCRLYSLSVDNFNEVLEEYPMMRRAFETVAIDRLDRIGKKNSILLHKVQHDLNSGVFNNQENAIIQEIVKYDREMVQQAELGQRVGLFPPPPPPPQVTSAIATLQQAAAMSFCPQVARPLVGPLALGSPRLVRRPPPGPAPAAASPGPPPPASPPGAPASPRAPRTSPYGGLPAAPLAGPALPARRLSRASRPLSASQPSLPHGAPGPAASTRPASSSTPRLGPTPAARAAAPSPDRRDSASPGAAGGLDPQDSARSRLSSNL

| Structure (SMILES) | IC50 [1] [µM] | IC50 [7] [µM] | IC50 [8] [µM] | IC50 [9] [µM] | other results |
| --- | --- | --- | --- | --- | --- |
| Cc1ccc2c(-c3ccccc3[C@@H](N)Cc3nc(S(C)(=O)=O)ccc3C)noc2c1 [Example 19, (S)-2-(3-Methyl-6-methylsulfonylpyridin-2-yl)-1-[2-(6-methylbenzo[d]isoxazol-3-yl)phenyl]ethan-1-amine hydrochloride] | 1.4 |  |  |  | IC50 [2]: 13.1 µM; IC50 [3]: 2.9 µM; IC50 [4]: 1.3 µM; IC50 [5]: 11.5 µM; efflux ratio at 1 h, 10 μM [6]: 12.4 |
| CS(=O)(=O)c1ccc(F)c(C[C@H](N)c2ccccc2-c2noc3c(F)cccc23)n1 [Example 26, (S)-1-[2-(7-Fluorobenzo[d]isoxazol-3-yl)phenyl]-2-(3-fluoro-6-methylsulfonylpyridin-2-yl)ethan-1-amine hydrochloride] | 1.8 |  |  |  | IC50 [2]: > 30 µM; IC50 [3]: 25.7 µM; IC50 [4]: 15.1 µM; IC50 [5]: 19.2 µM; efflux ratio at 1 h, 10 μM [6]: 4.2 |
| CS(=O)(=O)c1ccc(F)c(C[C@H](N)c2ccccc2-c2noc3cc(C(F)(F)F)ccc23)n1 [Example 10, (S)-2-(3-Fluoro-6-methylsulfonylpyridine-2-yl)-1-[2-(6-trifluoromethylbenzo[d]isoxazol-3-yl)phenyl]ethan-1-amine hydrochloride] | 17.2 |  |  |  |  |
| NC(=O)c1ccc(F)c(C[C@H](N)c2ccccc2-c2noc3ccccc23)n1 [Example 72, (S)-6-{2-Amino-2-[2-(benzo[d]isoxazol-3-yl)phenyl]ethyl}-5-fluoropyridine-2-carboxamide formate] |  | 1.2 | 10.3 | 1 | IC50 [10]: 20.9 µM; IC50 [11]: 18.6 µM; efflux ratio at 1 h, 10 μM [6]: 11.3 |
| CN(C)C(=O)c1ccc(F)c(C[C@H](N)c2ccccc2-c2noc3ccccc23)n1 [Example 74, (S)-6-{2-Amino-2-[2-(benzo[d]isoxazol-3-yl)phenyl]ethyl}-5-fluoro-N,N-dimethylpyridin-2-carboxamide hydrochloride] |  | 1.8 | 20.9 | 4.6 | IC50 [10]: 9.9 µM; IC50 [11]: 11.4 µM; efflux ratio at 1 h, 10 μM [6]: 16.7 |
| Cn1nc(-c2ccccc2[C@@H](N)Cc2ccccn2)c2ccccc21 [Example 60, (S)-1-[2-(1-Methyl-1H-indazole-3-yl)phenyl]-2-(pyridine-2-yl)ethan-1-amine hydrochloride] |  | 3.1 | > 30 | > 30 | IC50 [10]: 0.32 µM; IC50 [11]: 9.2 µM |
| N#Cc1cccc(C[C@H](N)c2ccccc2-c2noc3ccccc23)n1 [Example 116, (S)-1-[2-(Benzo[d]isoxazol-3-yl)phenyl]-2-(6-cyanopyridine-2-yl)ethan-1-amine hydrochloride] |  | 0.7 | 13.5 | 3.4 | IC50 [10]: 10.3 µM; IC50 [11]: 11.1 µM; efflux ratio at 1 h, 10 μM [6]: 1.1 |
| CS(=O)(=O)c1ccc(F)c(C[C@H](N)c2ccccc2-c2noc3ccc(F)cc23)n1 [Example 22, (S)-1-[2-(5-Fluorobenzo[d]isoxazol-3-yl)phenyl]-2-(3-fluoro-6-methylsulfonylpyridin-2-yl)ethan-1-amine hydrochloride] |  |  |  |  | IC50 [2]: 20.8 µM; IC50 [3]: 27.4 µM; IC50 [4]: 5.7 µM; IC50 [5]: 24.1 µM |
| N[C@@H](Cc1ccc(F)cn1)c1ccccc1-c1noc2ccccc12 [Example 69, (S)-1-[2-(Benzo[d]isoxazol-3-yl)phenyl]-2-(5-fluoropyridin-2-yl)ethan-1-amine hydrochloride] |  | 0.5 | 8.2 | 1.4 |  |
| Cc1ccc(S(C)(=O)=O)nc1C[C@H](N)c1ccccc1-c1noc2ccccc12 [Example 125, (S)-1-[2-(Benzo[d]isoxazol-3-yl)phenyl]-2-[3-methyl-6-(methylsulfonyl)pyridine-2-yl]ethan-1-amine hydrochloride] |  | 0.24 | 1.2 | 0.4 |  |
| CCc1ccc(C)c(C[C@H](N)c2ccccc2-c2noc3ccccc23)n1 [Example 9, (S)-1-[2-(Benzo[d]isoxazol-3-yl)phenyl]-2-(6-ethyl-3-methylpyridine-2-yl)ethan-1-amine hydrochloride] |  | 0.26 | 1.7 | 0.37 |  |
| Cc1ccc2c(-c3ccccc3[C@@H](N)Cc3nc(S(C)(=O)=O)ccc3F)noc2c1 [Example 11, (S)-2-(3-Fluoro-6-methylsulfonylpyridine-2-yl)-1-[2-(6-methylbenzo[d]isoxazol-3-yl)phenyl]ethan-1-amine hydrochloride] | 3.2 |  |  |  | IC50 [2]: 30 µM; IC50 [4]: 4.7 µM; IC50 [5]: 21.4 µM; efflux ratio at 1 h, 10 μM [6]: 5.2 |
| COc1ccnc(C[C@H](N)c2ccccc2-c2noc3ccccc23)c1 [Example 70, (S)-1-[2-(Benzo[d]isoxazol-3-yl)phenyl]-2-(4-methoxypyridin-2-yl)ethan-1-amine] |  | 1 | 19.1 | 3.8 |  |

The next lines start with results.

| IC50 [1] [µM] | Structure (SMILES) | IC50 [7] [µM] | IC50 [8] [µM] | IC50 [9] [µM] | other results |
| --- | --- | --- | --- | --- | --- |
| 5.8 | N#Cc1ccc2c(-c3ccccc3[C@@H](N)Cc3nc(Br)ccc3F)noc2c1 [Example 17, (S)-2-(6-Bromo-3-fluoropyridine-2-yl)-1-[2-(6-cyanobenzo[d]isoxazol-3-yl)phenyl]-ethan-1-amine hydrochloride] |  |  |  | IC50 [4]: 3.1 µM |
| > 30 | CC(C)S(=O)(=O)c1ccc(F)c(C[C@H](N)c2ccccc2-c2noc3cc(Cl)ccc23)n1 [Example 25, (S)-1-[2-(6-Chlorobenzo[d]isoxazol-3-yl)phenyl]-2-(3-fluoro-6-isopropyisulfonylpyridin-2-yl)ethan-1-amine hydrochloride] |  |  |  |  |
| 1.4 | N#Cc1ccc(F)c(C[C@H](N)c2ccccc2-c2noc3cc(Br)ccc23)n1 [Example 27, (S)-2-{2-Amino-2-[2-(6-bromobenzo[d]isoxazol-3-yl)phenyl]ethyl}-3-fluoropyridine-6-carbonitrile] |  |  |  |  |
| 2 | N[C@@H](Cc1nc(Br)ccc1F)c1ccccc1-c1noc2cc(Br)ccc12 [Example 16, (S)-2-(6-Bromo-3-fluoropyridine-2-yl)-1-[2-(6-bromobenzo[d]isoxazol-3-yl)phenyl]-ethan-1-amine] |  |  |  | IC50 [3]: 3 µM |
| 1 | Cc1ccc(C#N)nc1C[C@H](N)c1ccccc1-c1noc2cc(Br)ccc12 [Example 28, (S)-2-{2-Amino-2-[2-(6-bromobenzo[d]isoxazol-3-yl)phenyl]ethyl}-3-methylpyridine-6-carbonitrile] |  |  |  |  |
| 1.2 | N[C@@H](Cc1nc(Br)ccc1F)c1ccccc1-c1noc2cc(F)ccc12 [Example 15, (S)-2-(6-Bromo-3-fluoropyridine-2-yl)-1-[2-(6-fluorobenzo[d]isoxazol-3-yl)phenyl]-ethan-1-amine hydrochloride] |  |  |  | IC50 [3]: 5.1 µM |
| 1.7 | Cc1ccc(S(C)(=O)=O)nc1C[C@H](N)c1ccccc1-c1noc2cc(Cl)ccc12 [Example 23, (S)-1-[2-(6-Chlorobenzo[d]isoxazol-3-yl)phenyl]-2-(3-methyl-6-methylsulfonylpyridin-2-yl)ethan-1-amine hydrochloride] |  |  |  | IC50 [4]: 1.2 µM; IC50 [5]: 13.9 µM |
| 2.5 | CS(=O)(=O)c1ccc(F)c(C[C@H](N)c2ccccc2-c2noc3cc(Br)ccc23)n1 [Example 21, (S)-1-[2-(6-Bromobenzo[d]isoxazol-3-yl)phenyl]-2-(3-Fluoro-6-methylsulfonylpyridin-yl)ethan-1-amine hydrochloride] |  |  |  | IC50 [3]: 5.3 µM |
